Assay results taken from the supplement of paper PMC12463676, “Small-molecule dissolution of stress granules by redox modulation benefits ALS models” (Nature Chemical Biology, 2025).

Legend:
lipoamide = compound: NC(=O)CCCCC1CCSS1 [lipoamide]; experiment: thermal stability z-score vs DMSO; higher = more thermally stabilized by treatment; settings: HeLa, lipoamide concentration 100 µM
Procedure: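 Cellular thermal proteome profiling in HeLa cells. Cells were treated with 100 µM lipoamide for 1 h, with or without 1 mM arsenate for a further 1 h, then heated to ten temperatures (37-66.3 °C), and soluble protein was quantified by TMT mass spectrometry relative to 0.1% DMSO controls. The thermal stability score (sum of log2 fold changes minus the abundance score) was transformed to a z-score; mean of n = 3 experiments.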

potassium arsenate = compound: O=[As]([O-])(O)O.[K+] [potassium arsenate]; experiment: as above; settings: HeLa; arsenate concentration 1 mM
Procedure: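 Cellular thermal proteome profiling in HeLa cells treated with 1 mM arsenate for 1 h (DMSO pretreatment), heated to ten temperatures (37-66.3 °C). Soluble protein was quantified by TMT mass spectrometry relative to DMSO controls; the thermal stability score was transformed to a z-score; mean of n = 3 experiments.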

[1] = arsenate co-treatment: 1 mM arsenate 1 h
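Note: each temperature applied for 3 min, abundance score taken as mean log2 fold change at the two lowest temperatures, z-score obtained by mean subtraction and division by SD.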

Chain of UniProt Q96KA5 (Q96KA5 whole entry): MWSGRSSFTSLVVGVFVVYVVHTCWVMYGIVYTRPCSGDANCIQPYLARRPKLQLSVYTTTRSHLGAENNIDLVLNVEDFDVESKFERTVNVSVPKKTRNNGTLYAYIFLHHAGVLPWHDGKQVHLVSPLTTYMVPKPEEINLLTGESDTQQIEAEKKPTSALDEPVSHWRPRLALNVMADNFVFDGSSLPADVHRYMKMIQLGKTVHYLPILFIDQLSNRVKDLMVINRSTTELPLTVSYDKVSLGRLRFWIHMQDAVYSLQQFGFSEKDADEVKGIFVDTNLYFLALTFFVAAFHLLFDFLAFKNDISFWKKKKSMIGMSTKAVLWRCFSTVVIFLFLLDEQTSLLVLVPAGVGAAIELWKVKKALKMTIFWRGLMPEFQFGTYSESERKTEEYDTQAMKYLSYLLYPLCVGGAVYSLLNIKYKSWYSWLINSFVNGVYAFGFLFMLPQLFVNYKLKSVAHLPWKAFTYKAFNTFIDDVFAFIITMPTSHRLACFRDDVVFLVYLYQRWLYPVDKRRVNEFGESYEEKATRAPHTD
Chain of UniProt Q9Y6M9 (Q9Y6M9 whole entry): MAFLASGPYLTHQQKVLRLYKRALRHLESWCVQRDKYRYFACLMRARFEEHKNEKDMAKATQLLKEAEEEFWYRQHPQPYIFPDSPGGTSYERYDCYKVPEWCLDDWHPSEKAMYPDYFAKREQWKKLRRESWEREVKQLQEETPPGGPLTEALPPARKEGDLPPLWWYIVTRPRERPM
Chain of UniProt P50416 (P50416 whole entry): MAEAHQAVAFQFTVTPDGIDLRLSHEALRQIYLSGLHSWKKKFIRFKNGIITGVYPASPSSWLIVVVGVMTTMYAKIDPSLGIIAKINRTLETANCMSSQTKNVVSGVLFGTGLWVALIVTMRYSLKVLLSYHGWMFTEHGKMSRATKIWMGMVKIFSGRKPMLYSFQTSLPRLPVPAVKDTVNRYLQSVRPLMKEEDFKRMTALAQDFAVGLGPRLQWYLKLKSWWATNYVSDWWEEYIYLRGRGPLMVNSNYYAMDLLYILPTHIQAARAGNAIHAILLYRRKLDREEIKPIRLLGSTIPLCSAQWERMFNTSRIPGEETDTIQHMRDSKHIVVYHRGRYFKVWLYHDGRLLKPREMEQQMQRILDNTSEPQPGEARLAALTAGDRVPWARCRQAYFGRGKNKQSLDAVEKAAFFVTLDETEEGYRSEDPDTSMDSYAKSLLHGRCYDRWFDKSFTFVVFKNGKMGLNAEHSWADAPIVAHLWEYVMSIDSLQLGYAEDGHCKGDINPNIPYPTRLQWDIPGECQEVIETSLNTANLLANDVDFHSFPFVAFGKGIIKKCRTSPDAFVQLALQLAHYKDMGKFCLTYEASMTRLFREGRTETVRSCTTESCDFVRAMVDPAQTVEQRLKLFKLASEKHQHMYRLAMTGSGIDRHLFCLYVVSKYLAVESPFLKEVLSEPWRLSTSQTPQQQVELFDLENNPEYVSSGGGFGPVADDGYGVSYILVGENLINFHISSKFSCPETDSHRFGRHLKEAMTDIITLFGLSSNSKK
Chain of UniProt Q86TP1 (Q86TP1 whole entry): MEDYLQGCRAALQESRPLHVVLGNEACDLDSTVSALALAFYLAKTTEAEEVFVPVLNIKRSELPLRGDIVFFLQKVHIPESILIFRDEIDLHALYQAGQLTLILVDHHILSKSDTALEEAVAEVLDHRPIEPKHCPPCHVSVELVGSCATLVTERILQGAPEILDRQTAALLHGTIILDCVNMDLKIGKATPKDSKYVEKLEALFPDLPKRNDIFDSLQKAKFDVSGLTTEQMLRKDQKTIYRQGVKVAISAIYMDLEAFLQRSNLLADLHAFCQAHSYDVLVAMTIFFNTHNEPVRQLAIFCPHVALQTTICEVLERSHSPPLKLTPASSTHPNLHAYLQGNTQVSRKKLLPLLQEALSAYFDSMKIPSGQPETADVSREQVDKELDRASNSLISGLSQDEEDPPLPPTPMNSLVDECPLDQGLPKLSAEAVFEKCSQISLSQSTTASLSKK
Chain of UniProt Q15434 (Q15434 whole entry): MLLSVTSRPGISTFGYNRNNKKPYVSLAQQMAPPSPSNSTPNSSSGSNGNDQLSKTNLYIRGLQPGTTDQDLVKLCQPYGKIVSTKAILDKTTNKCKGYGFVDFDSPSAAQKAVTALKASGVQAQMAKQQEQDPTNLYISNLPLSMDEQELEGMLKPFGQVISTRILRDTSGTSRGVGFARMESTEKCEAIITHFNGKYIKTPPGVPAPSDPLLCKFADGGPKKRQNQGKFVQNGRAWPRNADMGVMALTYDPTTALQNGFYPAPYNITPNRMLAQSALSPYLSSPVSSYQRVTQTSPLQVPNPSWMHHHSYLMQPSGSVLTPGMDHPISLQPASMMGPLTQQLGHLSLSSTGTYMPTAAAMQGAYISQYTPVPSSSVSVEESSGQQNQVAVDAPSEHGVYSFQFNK
Chain of UniProt Q9BZC7 (Q9BZC7 whole entry): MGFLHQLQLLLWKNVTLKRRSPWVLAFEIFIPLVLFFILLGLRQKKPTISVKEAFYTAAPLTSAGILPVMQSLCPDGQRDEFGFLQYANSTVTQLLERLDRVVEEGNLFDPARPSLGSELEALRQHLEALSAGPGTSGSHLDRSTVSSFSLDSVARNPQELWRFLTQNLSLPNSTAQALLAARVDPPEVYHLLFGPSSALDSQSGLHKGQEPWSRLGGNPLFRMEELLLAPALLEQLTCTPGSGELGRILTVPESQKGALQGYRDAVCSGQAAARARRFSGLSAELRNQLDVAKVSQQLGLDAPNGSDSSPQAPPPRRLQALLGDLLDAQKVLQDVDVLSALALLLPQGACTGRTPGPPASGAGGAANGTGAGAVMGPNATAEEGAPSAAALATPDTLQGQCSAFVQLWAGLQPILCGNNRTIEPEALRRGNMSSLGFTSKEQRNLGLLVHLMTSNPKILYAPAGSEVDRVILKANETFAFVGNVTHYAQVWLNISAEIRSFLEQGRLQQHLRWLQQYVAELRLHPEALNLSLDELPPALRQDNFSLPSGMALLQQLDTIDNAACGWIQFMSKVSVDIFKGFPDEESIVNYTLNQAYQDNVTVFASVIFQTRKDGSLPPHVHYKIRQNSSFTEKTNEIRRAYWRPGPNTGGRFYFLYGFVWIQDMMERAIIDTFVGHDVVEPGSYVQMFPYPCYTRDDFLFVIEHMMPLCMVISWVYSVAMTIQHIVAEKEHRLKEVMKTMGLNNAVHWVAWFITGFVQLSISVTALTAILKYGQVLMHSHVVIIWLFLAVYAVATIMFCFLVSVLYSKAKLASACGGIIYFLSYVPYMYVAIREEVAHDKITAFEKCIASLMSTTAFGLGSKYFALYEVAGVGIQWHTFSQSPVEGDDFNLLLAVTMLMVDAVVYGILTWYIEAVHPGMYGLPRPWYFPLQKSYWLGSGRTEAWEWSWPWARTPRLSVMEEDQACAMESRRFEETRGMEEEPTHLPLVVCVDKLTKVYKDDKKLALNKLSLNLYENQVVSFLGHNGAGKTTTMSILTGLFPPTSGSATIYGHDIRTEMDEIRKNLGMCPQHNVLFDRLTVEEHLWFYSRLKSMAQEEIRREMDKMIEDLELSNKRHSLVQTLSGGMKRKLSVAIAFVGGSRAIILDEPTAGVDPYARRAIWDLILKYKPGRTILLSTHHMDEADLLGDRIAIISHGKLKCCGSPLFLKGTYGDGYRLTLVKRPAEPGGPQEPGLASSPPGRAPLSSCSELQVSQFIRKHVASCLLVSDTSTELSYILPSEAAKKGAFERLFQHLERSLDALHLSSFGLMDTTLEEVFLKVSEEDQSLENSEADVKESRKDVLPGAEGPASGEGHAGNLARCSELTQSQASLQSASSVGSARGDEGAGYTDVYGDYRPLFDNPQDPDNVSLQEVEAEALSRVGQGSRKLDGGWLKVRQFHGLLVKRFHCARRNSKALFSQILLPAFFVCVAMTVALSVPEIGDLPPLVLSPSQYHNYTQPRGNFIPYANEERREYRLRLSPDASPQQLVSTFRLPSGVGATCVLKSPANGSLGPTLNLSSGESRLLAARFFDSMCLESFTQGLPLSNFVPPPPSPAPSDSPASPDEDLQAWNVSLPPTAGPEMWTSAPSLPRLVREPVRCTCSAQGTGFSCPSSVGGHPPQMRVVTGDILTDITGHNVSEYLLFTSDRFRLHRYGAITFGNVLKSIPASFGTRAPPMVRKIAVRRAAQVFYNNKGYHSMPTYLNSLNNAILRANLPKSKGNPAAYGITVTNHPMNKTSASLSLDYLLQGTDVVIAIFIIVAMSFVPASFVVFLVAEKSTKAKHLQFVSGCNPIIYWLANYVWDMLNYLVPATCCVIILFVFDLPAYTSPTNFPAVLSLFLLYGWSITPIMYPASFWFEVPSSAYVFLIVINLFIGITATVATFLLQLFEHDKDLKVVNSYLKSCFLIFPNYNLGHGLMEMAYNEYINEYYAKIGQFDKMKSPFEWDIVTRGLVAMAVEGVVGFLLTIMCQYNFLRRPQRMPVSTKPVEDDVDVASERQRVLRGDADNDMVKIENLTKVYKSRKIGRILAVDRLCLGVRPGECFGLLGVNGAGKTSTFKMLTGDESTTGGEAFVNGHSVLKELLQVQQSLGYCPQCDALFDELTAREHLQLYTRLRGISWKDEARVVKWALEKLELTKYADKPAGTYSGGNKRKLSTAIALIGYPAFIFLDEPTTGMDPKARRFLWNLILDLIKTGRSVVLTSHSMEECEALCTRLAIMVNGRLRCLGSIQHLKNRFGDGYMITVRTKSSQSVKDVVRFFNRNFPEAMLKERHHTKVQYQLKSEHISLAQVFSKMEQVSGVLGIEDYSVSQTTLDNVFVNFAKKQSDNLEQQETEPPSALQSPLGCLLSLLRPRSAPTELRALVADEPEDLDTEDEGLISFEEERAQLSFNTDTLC
Chain of UniProt O75638 (O75638 whole entry): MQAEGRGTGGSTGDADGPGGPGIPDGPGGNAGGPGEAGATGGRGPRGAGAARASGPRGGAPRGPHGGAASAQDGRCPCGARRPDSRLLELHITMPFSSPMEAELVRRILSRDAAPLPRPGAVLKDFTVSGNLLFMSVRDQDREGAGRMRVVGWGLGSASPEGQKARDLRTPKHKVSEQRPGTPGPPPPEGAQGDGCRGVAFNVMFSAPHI

Target	thermal stability z-score (lipoamide; [1])	thermal stability z-score (lipoamide; arsenate co-treatment: none)	thermal stability z-score (potassium arsenate)
PRUNE (UniProt Q86TP1)	-0.709	-0.433	0.291
NDUFB9 (UniProt Q9Y6M9)	0.158	-0.175	-0.937
ICT1 (UniProt Q14197)	-0.321	-0.282	-0.225
NUP205 (UniProt Q92621)	-0.769	-0.572	1.05
NEU1 (UniProt Q99519)	-0.363	-0.25	0.921
RBMS2 (UniProt Q15434)	0.0996	0.158	-0.0696
SHOC2 (UniProt Q9UQ13)	0.22	-0.229	-0.00952
PSIP1 (UniProt O75475)	0.499	0.761	-0.306
CNOT10 (UniProt Q9H9A5)	-0.532	0.228	0.677
LOC102723897|WASH3P|WASH2P	0.179	-0.15	0.051
CLPTM1L (UniProt Q96KA5)	-2.13	-1.51	0.279
TNFAIP1 (UniProt Q13829)	-0.526	-0.699	-0.727
FAM136A (UniProt Q96C01)	1.12	0.665	-1.98
CPT1A (UniProt P50416)	-0.189	-0.268	-0.161
CRELD1 (UniProt Q96HD1)	-0.249	-0.193	-0.113
ACTR1A (UniProt P61163)	0.0148	0.0511	-0.614

Target	thermal stability z-score (lipoamide; [1])	thermal stability z-score (lipoamide; arsenate co-treatment: none)	thermal stability z-score (potassium arsenate)
SDHA (UniProt P31040)	-0.493	-0.532	-1.17
RECQL (UniProt P46063)	1.17	0.899	-1.22
MKRN2 (UniProt Q9H000)	0.303	0.829	-0.0571
RNF121 (UniProt Q9H920)	-1	-0.693	-1.09
SRSF6 (UniProt Q13247)	1.75	1.04	-0.598
DCUN1D1 (UniProt Q96GG9)	-0.437	-0.535	0.0368
GPR89A|GPR89B	-0.28	-0.026	-0.0938
PSMB1 (UniProt P20618)	1	0.743	0.497
ABCA2 (UniProt Q9BZC7)	0.0542	0.0722	-0.0916
RP2 (UniProt O75695)	0.38	1.49	-0.738
KIF1B (UniProt O60333)	-0.488	-0.322	-0.321
C19ORF53 (UniProt Q9UNZ5)	0.3	0.508	-0.988
CBSL|CBS	-1.81	-1.33	0.256
MRPL16 (UniProt Q9NX20)	-0.269	-0.373	-0.974
CTAG2 (UniProt O75638)	-0.394	0.0387	0.617
